Like-named read-outs stand apart in the source and are kept apart here. Starred links: 1 amine or outer side, 2 acyl side, 3 side chain; linkers in the order of their positions; H or OH if unused. Positions of bridges follow the written chain, without caps; N, C: chain ends. Non-standard residues stand in square brackets, D forms with d. Residues, ends and D or L forms follow the SMILES beside them. Groups on a side chain read outwards from the residue. *: point of attachment. Trp(1-Me) = Cn1cc(C[C@H](N)C(=O)O)c2ccccc21; C18 diacid = O=C(O)CCCCCCCCCCCCCCCCC(=O)*; γGlu = O=C(O)[C@H](CCC(=O)[*:2])N[*:1]; Sar = CNCC(=O)O
Legend:
[1] = Solubility test at 10 mg/mL (visual inspection and light scattering); type: physicochemical; settings: for Solubility, Condition 1 Acetate pH 4: 10 mg/mL compound in 100 mM acetate pH 4; for Solubility, Condition 2 Acetate pH 5: 10 mg/mL compound in 100 mM acetate pH 5; for Solubility, Condition 3 Phosphate pH 6: 10 mg/mL compound in 100 mM phosphate pH 6; for Solubility, Condition 4 Phosphate pH 7: 10 mg/mL compound in 100 mM phosphate pH 7; for Solubility, Condition 5 Phosphate pH 7.5: 10 mg/mL compound in 100 mM phosphate pH 7.5
[2] = system: classical complement pathway; assay: In vitro haemolysis assay (inhibition of classical complement pathway); type: cell-based, human; settings: human serum, sensitized sheep red blood cells
How it was run: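 Serially diluted compound (9 points) was preincubated 15 min at room temperature with diluted human serum, titrated per batch to give 70-90% maximal haemolysis, in Tris/casein buffer pH 7.4 with Mg2+/Ca2+. Antibody-sensitized sheep erythrocytes were then added for 30 min at 37° C, and the reaction was stopped with EDTA. Haemolysis was read at A405, with IC50 from 4PL fit.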

[3] = Table 3, read-out: IC50[nM], in vitro analysis of inhibition of hemolysis

| Compound | Solubility, Condition 1 Acetate pH 4 [1] | Solubility, Condition 2 Acetate pH 5 [1] | Solubility, Condition 3 Phosphate pH 6 [1] | Solubility, Condition 4 Phosphate pH 7 [1] | Solubility, Condition 5 Phosphate pH 7.5 [1] | IC50 [2, 3] | IC50 ([2]; Table 2, read-out: CP hemolysis IC50) |
| --- | --- | --- | --- | --- | --- | --- | --- |
| CC[C@H](C)[C@@H]1NC(=O)[C@@H](NC(=O)[C@H](Cc2ccccc2)NC(=O)[C@H](CCC(=O)O)NC(=O)[C@H](CO)NC(C)=O)CSSC[C@@H](C(=O)N(C)CC(=O)NCC(=O)N[C@@H](C)C(=O)N[C@@H](CCC(=O)O)C(=O)N[C@@H](CO)C(N)=O)NC(=O)[C@H](CCCNC(=N)N)NC(=O)[C@H](Cc2c[nH]cn2)NC(=O)[C@H](CCC(=O)O)NC(=O)CNC(=O)[C@H](Cc2c[nH]c3ccccc23)NC(=O)[C@H](CC(=O)O)NC(=O)[C@H](CCC(N)=O)NC(=O)[C@H](Cc2cn(C)c3ccccc23)NC1=O [Compound 74] (Ac-SEFCI[Trp(1-Me)]QDWGEHRC[Sar]GAES-NH2; disulfide 4-14) | − (denotes lack of solubility at the given condition, as UV absorbance at 340 nm exceeds 0.1 AU and/or it is visibly turbid or contains particles.) | + (denotes solubility at the given condition, as determined by UV absorbance being less than 0.1 AU at 340 nm and the sample being clear when manually inspected.) | + (denotes solubility at the given condition, as determined by UV absorbance being less than 0.1 AU at 340 nm and the sample being clear when manually inspected.) | + (denotes solubility at the given condition, as determined by UV absorbance being less than 0.1 AU at 340 nm and the sample being clear when manually inspected.) | + (denotes solubility at the given condition, as determined by UV absorbance being less than 0.1 AU at 340 nm and the sample being clear when manually inspected.) | < 100 nM | – |
| CC[C@H](C)[C@H](NC(C)=O)C(=O)N[C@H]1CSSC[C@@H](C(=O)N[C@H](C(N)=O)[C@@H](C)O)NC(=O)[C@H](CCCNC(=N)N)NC(=O)[C@H](Cc2c[nH]cn2)NC(=O)[C@H](C)NC(=O)CNC(=O)[C@H](Cc2c[nH]c3ccccc23)NC(=O)[C@H](CC(=O)O)NC(=O)[C@H](CCC(N)=O)NC(=O)[C@H](Cc2c[nH]c3ccccc23)NC(=O)[C@H]([C@@H](C)CC)NC1=O [Compound 1] (Ac-ICIWQDWGAHRCT-NH2; disulfide 2-12) | + (denotes solubility at the given condition, as determined by UV absorbance being less than 0.1 AU at 340 nm and the sample being clear when manually inspected.) | − (denotes lack of solubility at the given condition, as UV absorbance at 340 nm exceeds 0.1 AU and/or it is visibly turbid or contains particles.) | − (denotes lack of solubility at the given condition, as UV absorbance at 340 nm exceeds 0.1 AU and/or it is visibly turbid or contains particles.) | − (denotes lack of solubility at the given condition, as UV absorbance at 340 nm exceeds 0.1 AU and/or it is visibly turbid or contains particles.) | − (denotes lack of solubility at the given condition, as UV absorbance at 340 nm exceeds 0.1 AU and/or it is visibly turbid or contains particles.) | < 250 nM | 150 nM |
| CC[C@H](C)[C@@H]1NC(=O)[C@@H](NC(=O)[C@H](Cc2ccccc2)NC(=O)[C@H](CCC(=O)O)NC(=O)[C@H](CO)NC(C)=O)CSSC[C@@H](C(=O)N(C)CC(=O)N[C@@H](CCC(=O)O)C(N)=O)NC(=O)[C@H](CCCNC(=N)N)NC(=O)[C@H](Cc2c[nH]cn2)NC(=O)[C@H](CCC(=O)O)NC(=O)CNC(=O)[C@H](Cc2c[nH]c3ccccc23)NC(=O)[C@H](CC(=O)O)NC(=O)[C@H](CCC(N)=O)NC(=O)[C@H](Cc2cn(C)c3ccccc23)NC1=O [Compound 78] (Ac-SEFCI[Trp(1-Me)]QDWGEHRC[Sar]E-NH2; disulfide 4-14) | − (denotes lack of solubility at the given condition, as UV absorbance at 340 nm exceeds 0.1 AU and/or it is visibly turbid or contains particles.) | − (denotes lack of solubility at the given condition, as UV absorbance at 340 nm exceeds 0.1 AU and/or it is visibly turbid or contains particles.) | + (denotes solubility at the given condition, as determined by UV absorbance being less than 0.1 AU at 340 nm and the sample being clear when manually inspected.) | + (denotes solubility at the given condition, as determined by UV absorbance being less than 0.1 AU at 340 nm and the sample being clear when manually inspected.) | + (denotes solubility at the given condition, as determined by UV absorbance being less than 0.1 AU at 340 nm and the sample being clear when manually inspected.) | < 100 nM | – |
| CC[C@H](C)[C@@H]1NC(=O)[C@@H](NC(=O)[C@H](Cc2ccccc2)NC(=O)[C@H](CCC(=O)O)NC(C)=O)CSSC[C@@H](C(=O)N(C)CC(=O)N[C@@H](CCC(=O)O)C(=O)N[C@@H](C)C(N)=O)NC(=O)[C@H](CCCNC(=N)N)NC(=O)[C@H](Cc2c[nH]cn2)NC(=O)[C@H](CCC(=O)O)NC(=O)CNC(=O)[C@H](Cc2c[nH]c3ccccc23)NC(=O)[C@H](CC(=O)O)NC(=O)[C@H](CCC(N)=O)NC(=O)[C@H](Cc2cn(C)c3ccccc23)NC1=O [Compound 80] (Ac-EFCI[Trp(1-Me)]QDWGEHRC[Sar]EA-NH2; disulfide 3-13) | − (denotes lack of solubility at the given condition, as UV absorbance at 340 nm exceeds 0.1 AU and/or it is visibly turbid or contains particles.) | − (denotes lack of solubility at the given condition, as UV absorbance at 340 nm exceeds 0.1 AU and/or it is visibly turbid or contains particles.) | + (denotes solubility at the given condition, as determined by UV absorbance being less than 0.1 AU at 340 nm and the sample being clear when manually inspected.) | + (denotes solubility at the given condition, as determined by UV absorbance being less than 0.1 AU at 340 nm and the sample being clear when manually inspected.) | + (denotes solubility at the given condition, as determined by UV absorbance being less than 0.1 AU at 340 nm and the sample being clear when manually inspected.) | < 100 nM | – |
| CC[C@H](C)[C@@H]1NC(=O)[C@@H](NC(=O)[C@H](Cc2ccc(O)cc2)NC(=O)[C@H](CCC(=O)O)NC(=O)[C@H](CO)NC(C)=O)CSSC[C@@H](C(=O)N(C)CC(=O)N[C@@H](CCC(=O)O)C(=O)NCC(=O)N[C@@H](CCCCN)C(=O)N[C@@H](CCCCNC(=O)CC[C@H](NC(=O)CNC(=O)CC[C@H](NC(=O)CCCCCCCCCCCCCCCCC(=O)O)C(=O)O)C(=O)O)C(N)=O)NC(=O)[C@H](CCCNC(=N)N)NC(=O)[C@H](Cc2c[nH]cn2)NC(=O)[C@H](CCC(=O)O)NC(=O)CNC(=O)[C@H](Cc2c[nH]c3ccccc23)NC(=O)[C@H](CC(=O)O)NC(=O)[C@H](CCC(N)=O)NC(=O)[C@H](Cc2cn(C)c3ccccc23)NC1=O [Compound 115] (Ac-SEYCI[Trp(1-Me)]QDWGEHRC[Sar]EGKK([γGlu-Gly-γGlu-C18 diacid])-NH2; disulfide 4-14) | − (denotes lack of solubility at the given condition, as UV absorbance at 340 nm exceeds 0.1 AU and/or it is visibly turbid or contains particles.) | − (denotes lack of solubility at the given condition, as UV absorbance at 340 nm exceeds 0.1 AU and/or it is visibly turbid or contains particles.) | + (denotes solubility at the given condition, as determined by UV absorbance being less than 0.1 AU at 340 nm and the sample being clear when manually inspected.) | + (denotes solubility at the given condition, as determined by UV absorbance being less than 0.1 AU at 340 nm and the sample being clear when manually inspected.) | + (denotes solubility at the given condition, as determined by UV absorbance being less than 0.1 AU at 340 nm and the sample being clear when manually inspected.) | < 250 nM | – |
| CC[C@H](C)[C@@H]1NC(=O)[C@@H](NC(=O)[C@H](Cc2ccccc2)NC(=O)[C@H](N)Cc2ccc(O)cc2)CSSC[C@@H](C(=O)N[C@H](C(=O)NCC(=O)N[C@@H](C)C(=O)N[C@@H](CCC(=O)O)C(=O)N[C@@H](CO)C(N)=O)[C@@H](C)O)NC(=O)[C@H](CCCNC(=N)N)NC(=O)[C@H](Cc2c[nH]cn2)NC(=O)[C@H](CCC(=O)O)NC(=O)CN(C)C(=O)[C@H](Cc2c[nH]c3ccccc23)NC(=O)[C@H](CC(=O)O)NC(=O)[C@H](CCC(N)=O)NC(=O)[C@H](Cc2cn(C)c3ccccc23)NC1=O [Compound 73, H-{d}YFC(1)I[1-Me-Trp]QDW[Sar]EHRC(1)TGAES-NH2] (H-[dY]FCI[Trp(1-Me)]QDW[Sar]EHRCTGAES-NH2; disulfide 3-13) | + (denotes solubility at the given condition, as determined by UV absorbance being less than 0.1 AU at 340 nm and the sample being clear when manually inspected.) | − (denotes lack of solubility at the given condition, as UV absorbance at 340 nm exceeds 0.1 AU and/or it is visibly turbid or contains particles.) | − (denotes lack of solubility at the given condition, as UV absorbance at 340 nm exceeds 0.1 AU and/or it is visibly turbid or contains particles.) | + (denotes solubility at the given condition, as determined by UV absorbance being less than 0.1 AU at 340 nm and the sample being clear when manually inspected.) | + (denotes solubility at the given condition, as determined by UV absorbance being less than 0.1 AU at 340 nm and the sample being clear when manually inspected.) | < 100 nM | – |
